# Source: patent US6897210B2, “Quinazoline derivatives and pharmaceutical compositions containing them” (Zeneca Limited, priority 1996, dated 2005)
# Tests used:
# [1] = system: VEGF receptor tyrosine kinase (Flt, KDR); experiment: In vitro receptor tyrosine kinase inhibition test (VEGF receptor); type: biochemical; details: VEGF receptor tyrosine kinase compared with EGF receptor tyrosine kinase
# Text: (a) In Vitro Receptor Tyrosine Kinase Inhibition Test
# This assay determines the ability of a test compound to inhibit tyrosine kinase activity. […] These may then be expressed in a suitable expression system to obtain polypeptide with tyrosine kinase activity. […] This recombinant construct was co-transfected into insect cells (for example Spodoptera frugiperda 21(Sf21)) with viral DNA (eg Pharmingen BaculoGold) to prepare recombinant baculovirus.
# For expression of cFlt tyrosine kinase activity, Sf21 cells were infected with plaque-pure cFlt recombinant virus at a multiplicity of infection of 3 and harvested 48 hours later. […] The suspension was centrifuged for 10 minutes at 13,000 rpm at 4° C., the supernatant (enzyme stock) was removed and stored in aliquots at −70° C. Each new batch of stock enzyme was titrated in the assay by dilution with enzyme diluent (100 mM Hepes pH 7.4, 0.2 mM sodium orthovanadate. 0.1% v/v Triton X100, 0.2 mM dithiothreitol). For a typical batch, stock enzyme is diluted 1 in 2000 with enzyme diluent and 50 μl of dilute enzyme is used for each assay well.
# A stock of substrate solution was prepared from a random copolymer containing tyrosine, for example Poly (Glu, Ala, Tyr) 6:3:1 (Sigma P3899), stored as 1 mg/ml stock in PBS at −20° C. and diluted 1 in 500 with PBS for plate coating.
# On the day of the assay the substrate solution was discarded and the assay plate wells were washed once with PBST (PBS containing 0.05% v/v Tween 20) and once with 50 mM Hepes pH7.4.
# Test compounds were diluted with 10% dimethylsulphoxide (DMSO) and 25 μl of diluted compound was transferred to wells in the washed assay plates. “Total” control wells contained 10% DMSO instead of compound. Twenty five microliters of 40 mM manganese(II)chloride containing 8 μM adenosine-5′-triphosphate (ATP) was added to all test wells except “blank” control wells which contained maganese(II)chloride without ATP. To start the reactions 50 μl of freshly diluted enzyme was added to each well and the plates were incubated at room temperature for 20 minutes. The liquid was then discarded and the wells were washed twice with PBST. […] Plates were then incubated for 20-60 minutes at room temperature until the optical density value of the “total” control wells, measured at 405 nm using a plate reading spectrophotometer, was approximately 1.0.
smiles,measurement,setting,value
"COc1cc2c(Nc3ccc(Cl)cc3F)ncnc2cc1OCCN1CCNC1=O [Example 40, 4-(4-chloro-2-fluoroanilino)6-methoxy-7-(2-(2-oxoimidazolidin-1-yl)ethoxy)quinazoline]",melting point,,> 250 °C
same,activity against VEGF and EGF receptor tyrosine kinases,[1],substantially equivalent activity
